Assay results: patent US20240285534A1, “CO-AMORPHOUS SOLID FORMS OF FLAVONOIDS” (ALPARIS, S.A. de C.V., priority 2022, published 2024)

What was measured:
[1] = Solubility test in water (supersaturated solutions); assay type: physicochemical; settings: 22 mg added to 0.5 ml of water
Description: Supersaturated solutions of naringenin and NRG:ARG 1:3 NSF were prepared from 0.5 ml of water.

[2] = Wen et al., Molecules 2010; cited from earlier work

In the case of `O=C1C[C@@H](c2ccc(O)cc2)Oc2cc(O)cc(O)c21` [naringenin, Naringenin], the dissolution in water [1] is given as “practically it did not dissolve at all” and the reported solubility [2] is given as 4.38 µg/mL.
